{"source": "patent EP0278452A2", "about": "“2,4- and 2,5-Pyridine-dicarboxylic-acid derivatives, process for their preparation, their use and medicines based on these compounds” (HOECHST AKTIENGESELLSCHAFT, priority 1987, dated 1988)", "tested_on": "Prolin- und Lysinhydroxylase", "test": "CCl4-induced liver injury (fibrosis) in rats: collagen markers after treatment with the compound", "type": "in vivo, Ratten", "settings": "rats given CCl4, then compound, Dosierung 2 x 25 mg", "from_the_text": "Die Aktivität der Fibrogenase kann durch radioimmunologische Bestimmung des N-terminalen Propeptids des Kollagens Typ III oder der N- bzw. C-terminalen Quervernetzungsdomäne des Kollagens Typ IV (7s-Kollagen bzw. Typ-IV-Kollagen-NC₁) im Serum bestimmt werden.\nZu diesem Zweck wurden die Hydroxyprolin-, Prokollagen-III-Peptid-, 7s-Kollagen- und Typ-IV-Kollagen-NC₁-Konzentrationen in der Leber von • a) unbehandelten Ratten (Kontrolle) • b) Ratten, denen Tetrachlorkohlenstoff verabreicht wurde (CCl₄-Kontrolle) • c) Ratten, denen zunächst CCl₄ und anschließend eine erfindungsgemäße Verbindung verabreicht wurde gemessen (diese Testmethode wird beschrieben von Rouiller, C., experimental toxic injury of the liver; in The Liver, C. Rouiller, Vol. 2, S. 335-476, New York, Academic Press, 1964).\nDie pharmakologische Wirksamkeit der erfindungsgemäßen Substanzen wurde in einer Versuchsreihe (s. Tabelle 1) untersucht. Dabei zeigte sich eine deutliche Hemmung der Prolin- und Lysinhydroxylase.", "data": [{"smiles": "COC(=O)C(C)(C)COC(=O)c1ccc(C(=O)OCC(C)(C)C(=O)OC)nc1", "note": "[compound 4, Pyridin-2,5-dicarbonsäure-bis(2-methoxycarbonyl-2,2-dimethylethyl)ester]", "values": [{"measurement": "Hydroxy-prolin", "setting": "CCl4-Kontrolle 0.773, Kontrolle 0.289", "result": 0.482, "unit": "µg/mg Leber"}, {"measurement": "Prokollagen-III-Peptid", "setting": "CCl4-Kontrolle 73.9, Kontrolle 11.1", "result": 37.2, "unit": "ng/mL"}, {"measurement": "Typ-IV-Kollagen-NC1", "setting": "CCl4-Kontrolle 168.4, Kontrolle 23.5", "result": 100.8, "unit": "ng/mL"}, {"measurement": "7s-Kollagen", "setting": "CCl4-Kontrolle 308.7, Kontrolle 22.8", "result": 121.4, "unit": "ng/mL"}]}]}
